Measured values: PubChem BioAssay (NCI)
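Interpolation was linear, between the two tested concentrations surrounding the appropriate level; five concentrations were tested over 48 hours in 96-well plates. GI50: concentration for 50% inhibition of growth. TGI denotes the concentration required for complete inhibition of growth.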 Where a SMILES comes first, the peptide text is derived from it. [ ]: non-standard residue; d: D form. The star is where a group is joined. ξ: configuration not given here. ξF = NC(Cc1ccccc1)C(=O)O; Cbz = O=C(OCc1ccccc1)*; Aib = CC(C)(N)C(=O)O

What was measured:
Assay in all cases: DTP human tumour cell line panel, 48 h
[1] = tested on: OVCAR-3 ovarian
[2] = tested on: COLO 205 colon
[3] = tested on: MALME-3M melanoma
[4] = tested on: OVCAR-8 ovarian
[5] = tested on: NCI-H226 lung
[6] = tested on: SN12C renal
[7] = tested on: K-562 leukemia
[8] = tested on: ACHN renal
[9] = tested on: KM12 colon
[10] = tested on: IGROV1 ovarian

SMILES: Nc1nc2ccc(OCC(O)CN3CCCCC3)cc2[n+]([O-])n1 (stereo unspecified)
- TGI [1]: > 100 µM
- TGI [2]: > 100 µM
- TGI [3]: > 100 µM
- TGI [4]: > 100 µM
- TGI [5]: > 100 µM
- TGI [6]: > 100 µM
- TGI [7]: > 100 µM
- TGI [8]: > 100 µM
- TGI [9]: > 100 µM

SMILES: N=C(N)c1ccc(-c2ccc(-c3cccs3)s2)s1
- GI50 [3]: 1.71 µM
- TGI [3]: 3.67 µM
- GI50 [5]: 6.89 µM
- TGI [5]: 52.4 µM
- GI50 [6]: 1.58 µM
- TGI [6]: 3.3 µM
- GI50 [8]: 1.66 µM
- TGI [8]: 3.09 µM
- GI50 [9]: 1.47 µM
- TGI [9]: 2.92 µM

SMILES: CCOC(=O)CCC(NC(=O)OCc1ccccc1)C(=O)NC(CCC(=O)OCC)C(=O)NNC(=O)OC(C)(C)C (stereo unspecified)
- TGI [1]: > 100 µM
- TGI [2]: > 100 µM
- TGI [3]: > 100 µM
- TGI [10]: > 100 µM
- TGI [4]: > 100 µM
- TGI [5]: > 100 µM
- TGI [6]: > 100 µM
- TGI [7]: > 100 µM
- TGI [9]: > 100 µM

SMILES: c1cncc(O[Si](Oc2cccnc2)(Oc2cccnc2)Oc2cccnc2)c1
- TGI [1]: > 100 µM
- TGI [2]: > 100 µM
- TGI [3]: > 100 µM
- TGI [10]: > 100 µM
- TGI [4]: > 100 µM
- TGI [5]: > 100 µM
- TGI [6]: > 100 µM
- TGI [9]: > 100 µM

SMILES: Nc1c(-c2ccccc2[N+](=O)[O-])nc2ccccn12
- TGI [1]: > 100 µM
- TGI [2]: > 100 µM
- TGI [3]: > 100 µM
- TGI [10]: > 100 µM
- TGI [4]: > 100 µM
- TGI [5]: > 100 µM
- TGI [6]: > 100 µM
- TGI [7]: > 100 µM
- TGI [8]: > 100 µM
- TGI [9]: > 100 µM

SMILES: COc1cc(Nc2nnc3n2S(=O)(=O)c2cc(C)c(Cl)cc2S3)cc(OC)c1
- TGI [1]: 28.2 µM
- TGI [2]: > 100 µM
- TGI [3]: 23.1 µM
- TGI [10]: 6.26 µM
- TGI [4]: 81.1 µM
- TGI [5]: 55.1 µM
- TGI [6]: > 100 µM
- TGI [7]: > 100 µM
- TGI [8]: 16.7 µM
- TGI [9]: > 100 µM

SMILES: Cc1ccc(N2CCN(CCC(=O)O)CC2)cc1
- TGI [1]: > 100 µM
- TGI [2]: > 100 µM
- TGI [3]: > 100 µM
- TGI [10]: > 100 µM
- TGI [4]: > 100 µM
- TGI [5]: > 100 µM
- TGI [6]: > 100 µM
- TGI [7]: > 100 µM
- TGI [8]: > 100 µM
- TGI [9]: > 100 µM

SMILES: NCCSCc1ccccc1Cl
- TGI [1]: 82.9 µM
- TGI [3]: > 100 µM
- TGI [10]: > 100 µM
- TGI [4]: > 100 µM
- TGI [5]: > 100 µM
- TGI [6]: > 100 µM
- TGI [7]: 76.6 µM
- TGI [8]: > 100 µM
- TGI [9]: > 100 µM

SMILES: CCOc1ccc(N=NS(=O)(=O)O)cc1
- TGI [1]: > 100 µM
- TGI [2]: > 100 µM
- TGI [3]: > 100 µM
- TGI [10]: > 100 µM
- TGI [4]: > 100 µM
- TGI [5]: > 100 µM
- TGI [6]: > 100 µM
- TGI [7]: > 100 µM
- TGI [8]: > 100 µM
- TGI [9]: > 100 µM

SMILES: CC(=O)ON1C(=O)c2cccc3cccc(c23)C1=O
- TGI [1]: 68.9 µM
- TGI [2]: 86.7 µM
- TGI [3]: 45 µM
- TGI [10]: > 100 µM
- TGI [4]: > 100 µM
- TGI [7]: > 100 µM
- TGI [8]: > 100 µM
- TGI [9]: > 100 µM

SMILES: COC(=O)C(C)(C)NC(=O)C(Cc1ccccc1)NC(=O)C(C)(C)NC(=O)OCc1ccccc1 (stereo unspecified) (Cbz-[Aib]-[ξF]-[Aib]-OMe)
- TGI [1]: > 100 µM
- TGI [2]: > 100 µM
- TGI [3]: > 100 µM
- TGI [10]: > 100 µM
- TGI [4]: > 100 µM
- TGI [7]: > 100 µM
- TGI [8]: > 100 µM

SMILES: C(=N\OCCc1ccccc1)/c1cccnc1
- TGI [1]: > 100 µM
- TGI [2]: > 100 µM
- TGI [3]: > 100 µM
- TGI [10]: > 100 µM
- TGI [4]: > 100 µM
- TGI [5]: > 100 µM
- TGI [6]: > 100 µM
- TGI [7]: > 100 µM
- TGI [8]: > 100 µM
- TGI [9]: > 100 µM

SMILES: COc1cc(-c2n/c(=C\c3c(O)[nH]c4cc(Cl)ccc34)cc3c2=Nc2ccccc2-3)cc(OC)c1OC
- GI50 [1]: 2.13 µM
- TGI [1]: 6.69 µM
- GI50 [3]: 2.98 µM
- TGI [3]: 9.41 µM
- GI50 [10]: 5.56 µM
- TGI [10]: 51.1 µM
- GI50 [4]: 4.6 µM
- TGI [4]: 29.2 µM
- GI50 [5]: 3.85 µM
- TGI [5]: 21.9 µM
- GI50 [6]: 4.15 µM
- TGI [6]: 26.1 µM
- GI50 [7]: 3.57 µM
- TGI [7]: 48.6 µM
- GI50 [8]: 4.49 µM
- TGI [8]: 22.2 µM
- GI50 [9]: 5.89 µM
- TGI [9]: > 100 µM

SMILES: Clc1ccc(-c2ccc(-c3nnc(COc4ccc(OCc5nnc(-c6ccc(-c7ccc(Cl)cc7Cl)o6)o5)c(Cl)c4)o3)o2)c(Cl)c1
- TGI [1]: > 100 µM
- TGI [2]: > 100 µM
- TGI [10]: > 100 µM
- TGI [4]: > 100 µM
- TGI [5]: > 100 µM
- TGI [6]: > 100 µM
- TGI [7]: > 100 µM
- TGI [8]: > 100 µM
- TGI [9]: > 100 µM

SMILES: C[CH2][Ge]([CH2]C)([CH2]C)[O]C(=O)CCC(=O)[O][Ge]([CH2]C)([CH2]C)[CH2]C
- GI50 [1]: 66 µM
- TGI [1]: > 100 µM
- GI50 [2]: > 100 µM
- TGI [2]: > 100 µM
- GI50 [3]: 79.3 µM
- TGI [3]: > 100 µM
- GI50 [10]: > 100 µM
- TGI [10]: > 100 µM
- GI50 [4]: 34.7 µM
- TGI [4]: > 100 µM
- GI50 [5]: > 100 µM
- TGI [5]: > 100 µM
- GI50 [6]: > 100 µM
- TGI [6]: > 100 µM
- GI50 [7]: 29.6 µM
- TGI [7]: > 100 µM
- GI50 [8]: > 100 µM
- TGI [8]: > 100 µM
- GI50 [9]: 55.2 µM
- TGI [9]: > 100 µM

SMILES: NC(=O)/C=c1/c2ccccc2n2nc3ccccc3c12
- TGI [1]: 49.1 µM
- TGI [2]: 40.6 µM
- TGI [3]: 53.4 µM
- TGI [10]: 35 µM
- TGI [4]: 27.4 µM
- TGI [6]: 40.2 µM
- TGI [7]: 53.2 µM
- TGI [8]: 29.1 µM
- TGI [9]: 56.5 µM
